Results on one compound are retold here after patent US7429396B2, “Antifungal composition, its fungicidal effect on pathogenic dermatophytes, and process for inhibiting growth of fungi” (Bio-Botanica, Inc., priority 2003, dated 2008).

One test deals with S. aureus ATCC 29213. The test is described as follows: Agar Dilution susceptibility method (Example 5). The test is classed as cell-based, Staphylococcus aureus. Here is the method:
(§1) The Agar Dilution susceptibility method was used to test the effectiveness of the antimicrobial composition of Example 1. The organisms used were S. aureus ATCC 29213, E. coli ATCC 25922, S. typhimurium ATCC 14028, K. pneumoniae ATCC 10031, P. aeruginosa ATCC 27853, C. albicans ATCC 10231, and M. smegmatis ATCC 14468. The organisms were maintained on Tryptic Soy Agar (TSA) slants. For each week, the organisms were cultured in 10 ml of Tryptic Soy Broth (TSB). After incubation at 37° C. for 17 hours (48 hours for M. smegmatis), the organism suspensions were diluted with 10 ml of sterile saline as shown in Table 4. The mold Aspergillus niger was sustained on a Sabouraud Dextrose Agar slant. The sample was then cultured in 10 ml of Tryptic Soy Broth and incubated for 7 days at 22° C. The mold was then diluted in 0.1% Tween 80 in saline. The diluted bacteria and yeast organisms were then inoculated onto the prepared sample plates with a 1 μl loop. The mold Aspergillus niger was added to prepared sample tubes with a 100 μl pipette.
(§2) Phenyloxyethanol (PE), phenylethyl alcohol (PEA) and methyl/propylparabens (MP) in a ratio of 5:4 were initially screened at their commonly recommended effective concentrations of 0.3% v/v (3 μl/ml); 1% v/v (10 μl/ml); and 0.18% w/v (1 mg methyl and 0.8 mg propylparaben/ml), respectively. The antimicrobial agent was used at an initial concentration of 0.15% v/v (1.5 μl/ml).
The sample plates for the bacteria and yeast were prepared as follows: • Prepare 10 ml tubes of TSA and allow to cool to 50° C., • Add the calculated amount of the preservative or antimicrobial agent to 100 μl dimethylsulfoxide (DMSO) to achieve the specified concentration per ml TSA when 100 μl of the DMSO solution are added to a test tube containing 10 ml of TSA, • Vortex to homogenize the mixture in TSA, • Pour TSA and the preservative or antimicrobial agent into a properly labeled Petri dish, • Allow to cool overnight at room temperature. […]
The results for the bacteria and yeast were scored in relation to the growth present on the positive control plate. […]

Test [1] has as its system S. typhimurium ATCC 14028. As to the kind of experiment: Agar Dilution susceptibility method (Example 5). The test is classed as cell-based, Salmonella typhimurium. Here is the method:
as §1, §2
(§3) The sample plates for the bacteria and yeast were prepared as follows: • Prepare 10 ml tubes of TSA and allow to cool to 50° C., • Add the calculated amount of the preservative or antimicrobial agent to 100 μl dimethylsulfoxide (DMSO) to achieve the specified concentration per ml TSA when 100 μl of the DMSO solution are added to a test tube containing 10 ml of TSA, • Vortex to homogenize the mixture in TSA, • Pour TSA and the preservative or antimicrobial agent into a properly labeled Petri dish, • Allow to cool overnight at room temperature.
(§4) The prepared sample plates were divided into seven sections and the plates labeled according to the preservative or antimicrobial agent. Each section was labeled according to the microorganism to be applied to each section. The diluted organism suspensions were inoculated onto their appropriate section with a 1 μl loop, streaking radially from the center to the outer edge of the plate. A positive control plate was prepared without a preservative or antimicrobial agent of Example 1. The plates were then incubated at 37° C. for 48 hours, recording the results at 24 and 48 hours.
Growth (G) was noted when there was full growth visible and the organism was not affected. […]
In this example and the tables, the amount of the antimicrobial agent is expressed in terms of the volume of antimicrobial sample. […]

Another test concerns K. pneumoniae ATCC 10031. The test is described as follows: Agar Dilution susceptibility method (Example 5). The test is classed as cell-based, Klebsiella pneumoniae. Here is the method:
as §1, §2, §3, §4
(§5) The results for the bacteria and yeast were scored in relation to the growth present on the positive control plate. Growth (G) was noted when there was full growth visible and the organism was not affected. […]
(§6) In this example and the tables, the amount of the antimicrobial agent is expressed in terms of the volume of antimicrobial sample. The concentration of the antimicrobial agent of 1 μl/ml corresponds to 1 mg (milligram)/ml of the antimicrobial agent. The MIC obtained was confirmed by three consecutive results. DMSO was used to solubilize the test samples and help to diffuse the lipophilic ingredients into the agar. DMSO was used at a concentration not exceeding 1%.

For the next test, the system named is M. smegmatis ATCC 14468. The test is described as follows: Agar Dilution susceptibility method (Example 5). The test is classed as cell-based, Mycobacterium smegmatis. Here is the method:
as §1, §2, §3, §4, §5

The subject of another test is C. albicans ATCC 10231. As to the kind of experiment: Agar Dilution susceptibility method (Example 5). In kind it is cell-based, Candida albicans. Here is the method: as §1, §2, §3, §4, §5
For another test, the system named is A. niger ATCC 16404. The test is described as follows: Broth tube susceptibility test of the mold (Example 5). In kind it is cell-based, Aspergillus niger. Here is the method:
as §1
The sample for the mold Aspergillus niger was prepared as follows: • Prepare 10 ml tubes of Tryptic Soy Broth (TSB), • Add the calculated amount of the sample to 100 μl dimethylsulfoxide (DMSO) to achieve the specified concentration per ml TSB. Then 100 μl of the DMSO is added to a test tube containing 10 ml of TSB, • Vortex to homogenize the mixture in TSB, • Add 100 μl of Aspergillus niger suspension to a tube of TSB not inoculated with any sample as a positive control.
The prepared sample tubes were inoculated with 100 μl of the mold Aspergillus niger suspension to produce a final mold spore concentration in each sample tube of 1×10^4 to 1×10^5 spores/ml. The prepared sample tubes of TSB were incubated at 37° C. for 5 days with the results being recorded at 3 and 5 days.
The results for Aspergillus niger were scored in relation to the growth present in the positive control tube. The growth (G) was noted when there was full growth visible as determined by the tube appearing cloudy to the same extent as the positive control tube. Partial activity (P) was recorded when the sample tube of TSB was less turbid than the control tube. No growth (I) was recorded when there was total inhibition and broth in the tube appeared clear.
as §6

Where “and” joins values, the source holds several entries; their conditions need not be identical. Equal values may be shown once.

`OCCc1ccccc1` [Phenylethyl Alcohol]: the “Minimum Inhibitory Concentration (MIC) (sample/ml of agar or broth)” value in the test with S. aureus ATCC 29213 is 10.0 μl/ml; in test [1], 5.0 μl/ml; with K. pneumoniae ATCC 10031 it was 5.0 μl/ml; with M. smegmatis ATCC 14468, 2.5 μl/ml; in the test on C. albicans ATCC 10231 it was 2.5 μl/ml and 3.0 μl/ml; in the test with A. niger ATCC 16404 it was 2.5 μl/ml. Also, in the test with S. aureus ATCC 29213 (0.3 wt %), the “effect on S. aureus” value is “no effect”. For the same compound, the growth score result (in the test with S. aureus ATCC 29213 (6.0 μl/ml); in test [1] (3.0 μl/ml); in test [1] (5.0 μl/ml); in test [1] (6.0 μl/ml); in the test on K. pneumoniae ATCC 10031 (1.5 μl/ml); in the test on K. pneumoniae ATCC 10031 (3.0 μl/ml)) was “I” throughout. The growth score entry in the test on K. pneumoniae ATCC 10031 (5.0 μl/ml), in the test with K. pneumoniae ATCC 10031 (6.0 μl/ml), with M. smegmatis ATCC 14468 (3.0 μl/ml), in the test with M. smegmatis ATCC 14468 (5.0 μl/ml), with M. smegmatis ATCC 14468 (6.0 μl/ml) and in the test with C. albicans ATCC 10231 (3.0 μl/ml) was “I” in each case. Also, the growth score entry in the test on C. albicans ATCC 10231 (5.0 μl/ml), in the test with C. albicans ATCC 10231 (6.0 μl/ml), with A. niger ATCC 16404 (3.0 μl/ml), in the test on A. niger ATCC 16404 (5.0 μl/ml) and in the test on A. niger ATCC 16404 (6.0 μl/ml) was “I” throughout.
